# From patent publication US7645903B2, “Use of urea variants as affinity ligands” (GE Healthcare Bio-Sciences AB, priority 2002, dated 2010)
# Structures can show the parent of a compound that is named as a salt.
# System: human Fab of κ-type
# Test: STD-NMR binding test (saturation transfer difference NMR screening)
# Parameters: key to NMR signal, conc 1 / NMR signal, conc 2 / NMR signal, conc 3 / NMR signal, Conc 1 (directed library) / NMR signal, Conc 2 (directed library): 0 no; 1 weak; 2 strong signal
# Settings: for NMR signal, conc 1: 500 nM protein; for NMR signal, conc 1 / NMR signal, conc 2: 0.5 mM ligand; for NMR signal, Conc 2 (directed library): 100 nM antibody; for NMR signal, Conc 1 (directed library): 500 nM antibody; for NMR signal, conc 2: 100 nM protein
# Description: All NMR experiments were performed at 298 K on a Bruker Avance 500 MHz spectrometer. The 1D saturation transfer difference method (STD-NMR) was used as screening assay (Mayer M. and Meyer B. 1999. Characterisation of Ligand Binding by Saturation Transfer Difference NMR Spectroscopy. Angew. Chem., Int. Ed. 38: 1784-1788). […] The two spectra are recorded in the same experiment in an interleaved fashion. […] It has been shown that the method is capable of detecting ligands with dissociation constants between 10^−3 and 10^−8 M (Mayer M. and Meyer B. 1999. Characterisation of Ligand Binding by Saturation Transfer Difference NMR Spectroscopy. Angew. Chem, Int. Ed. 38: 1784-1788). The strength of the STD-NMR signal depends upon several factors including protein size, offset and duration of the on-resonance irradiation, the dissociation rate constant and the excess of ligand. The STD-NMR method is advantageous in that the detection limits can be tuned for binding by varying the protein concentration while keeping the ligand concentration constant. Under such conditions, at higher protein concentrations the weak to medium binders are detected, whereas at lower protein concentrations only medium binders are detected. For instance, it has been shown before for another enzyme system that both μM and mM binders were detected at a protein concentration of 35 μM whereas only μM binders were detected at protein concentrations of 1 μM and 100 nM (Peng J. W., Lepre C. A., Fejzo J., Abdul-Manan N. and Moore J. M. 2001, Nuclear Magnetic Resonance-Based Approaches for Lead Generation in Drug Discovery, Methods in Enzymology. 338: 202-230). It should be noted that the signal intensity at one specific protein concentration should not be taken as a direct measure of the binding strength. […] On the other hand the signal of the μM binder became even stronger than before (Peng J. W., Lepre C. A., Fejzo J., Abdul-Manan N. and Moore J. M. 2001, Nuclear Magnetic Resonance-Based Approaches for Lead Generation in Drug Discovery, Methods in Enzymology. 338: 202-230).
# Here, three different antibody concentrations were used, namely, 0.5 μM, 100 nM and 20 nM. The antibody used was a human Fab of κ-type. In all cases ligands were tested one-by-one. On-resonance irradiation was set at 0 ppm and off-resonance irradiation was set at 40 ppm. Irradiation time in each scan was 2 s and 16K data points were collected with 1024 scans in total. Compounds for testing were dissolved in DMSOd6 to a concentration of 50 mM and 5 μL of the concentrated ligand solution was added to 495 μL buffer solution. The samples thus consisted of 0.5 mM ligand, 20 mM phosphate buffer, 100 mM NaCl and […] in D2O at pD 7.5, uncorrected reading on pH-meter. Compounds were initially tested for binding with 0.5 μM antibody. Interesting ligands were further tested with protein concentrations of 100 or 20 nM. A one-dimensional ^1H-spectrum was acquired first as reference spectrum and subsequently a saturation transfer difference (STD) spectrum was acquired. Each analysis took 60 minutes on the spectrometer.
Compound,"NMR signal, conc 1","NMR signal, conc 2",also measured
"COC(=O)CCCN(C)C(=O)N(C)c1ccc(OC)c(Cl)c1 [AB_0001253, 4-[3-(3-Chloro-4-methoxy-phenyl)-1,3-dimethyl-ureido]-butyric acid methyl ester]",,,"NMR signal, Conc 2 (directed library): 1; NMR signal, Conc 1 (directed library): 2"
"COC(=O)CCCN(C)C(=O)N(C)c1ccc(F)c(F)c1 [AB_0001258, 4-[3-(3,4-Difluoro-phenyl)-1,3-dimethyl-ureido]-butyric acid methyl ester]",,,"NMR signal, Conc 2 (directed library): 1; NMR signal, Conc 1 (directed library): 1"
"O=C1c2ccncc2C(=O)N1c1ccc(Cl)cc1 [AB_0000610, 2-(4-chlorophenyl)-2,3-dihydro-1h-pyrrolo[3,4-c]pyridine-1,3-dione]",0,,
"Clc1ccc(COn2ccnc2)cc1Cl [AB_0001150, 1-[(3,4-dichlorobenzyl)oxy]-1h-imidazole]",2,0,
"COC(=O)CCCNC(=O)N(C)c1ccc(Cl)c(Cl)c1 [AB_0001257, 4-[3-(3,4-Dichloro-phenyl)-3-methyl-ureido]-butyric acid methyl ester]",,,"NMR signal, Conc 2 (directed library): 0; NMR signal, Conc 1 (directed library): 2"
"O=C1C=C(Cl)C(=O)N1c1ccccc1 [AB_0000930, 3-chloro-1-phenyl-pyrrole-2,5-dione]",0,,
"COC(=O)CCCN(C)C(=O)N(C)c1ccc(OC)c(F)c1 [AB_0001252, 4-[3-(3-Fluoro-4-methoxy-phenyl)-1,3-dimethyl-ureido]-butyric acid methyl ester]",,,"NMR signal, Conc 2 (directed library): 1; NMR signal, Conc 1 (directed library): 1"
"O=C(Nc1ccc(F)cc1)Oc1noc(-c2ccccc2)n1 [AB_0000740, 5-phenyl-1,2,4-oxadiazol-3-yl n-(4-fluorophenyl)carbamate]",0,,
"O=Cc1cccc(C(F)(F)F)c1Cl [AB_0001030, 2-chloro-3-(trifluoromethyl)benzaldehyde]",1,0,
"O=C(Cc1ncon1)Nc1ccc(F)c(F)c1F [AB_0000630, n1-(2,3,4-trifluorophenyl)-2-(1,2,4-oxadiazol-3-yl)acetamide]",0,,
"CCn1ccnc1CC1COc2ccccc2O1 (stereo not shown) [AB_0001070, imiloxan hydrochloride]",1,1,
"N=c1sccn1CC(=O)c1ccc2ccccc2c1 [AB_0001060, 2-(2-imino-thiazol-3-yl)-1-naphthalen-2-yl-ethanone]",2,0,
"O=C(c1cccs1)c1cnc2ccccn2c1=O [AB_0001300, 3-(2-thienylcarbonyl)-4h-pyrido[1,2-a]pyrimidin-4-one]",1,0,
"CCCCc1c(O)nc2ccccn2c1=O [AB_0000990, 3-butyl-2-hydroxy-4h-pyrido[1,2-a]pyrimidin-4-one]",0,,
"CCOC(=O)c1c[nH]c2ccccc2c1=O [AB_0001100, ethyl 4-oxo-1,4-dihydroquinoline-3-carboxylate]",0,,
"CC1(C)CC(=O)c2sc(NC(=O)c3cccnc3)nc2C1 [AB_0000750, n-(5,5-dimethyl-7-oxo-4,5,6,7-tetrahydro-benzothiazol-2-yl)-nicotinamide]",0,,
"O=C(CC1OC(=O)c2ccccc21)c1ccccn1 (stereo not shown) [AB_0000790, 3-[2-oxo-2-(2-pyridyl)ethyl]-1,3-dihydroisobenzofuran-1-one]",0,,
"COC(=O)[C@H]1CCCN1C(=O)N(C)c1ccc(Cl)c(Cl)c1 (single isomer, unassigned) [AB_0003290, 1-[(3,4-Dichloro-phenyl)-methyl-carbamoyl]-pyrrolidine-2-carboxylic acid methyl ester (R-isomer)]",,,"NMR signal, Conc 2 (directed library): 2; NMR signal, Conc 1 (directed library): 2"
"COC(=O)NC(=O)c1nc(-c2ccccc2)c(C)o1 [AB_0000670, methyl n-[(5-methyl-4-phenyl-1,3-oxazol-2-yl)carbonyl]carbamate]",2,0,
"FC(F)(F)c1cccc(-n2ccnc2)c1 [AB_0001220, 1-(3-trifluoromethylphenyl)imidazole]",2,0,
"OC(CNCc1ccc(Cl)cc1)CSc1ccccc1 (stereo not shown) [AB_0001270, 1-[(4-chlorobenzyl)amino]-3-(phenylthio)propan-2-ol]",1,0,
"O=C(c1ccc2ccccc2c1)n1ccnc1 [AB_0000900, 1-(2-naphthoyl)imidazole]",0,,
"COC(=O)CCCN(C)C(=O)N(C)c1ccccc1 [AB_0001251, 4-(1,3-Dimethyl-3-phenyl-ureido)-butyric acid methyl ester]",,,"NMR signal, Conc 2 (directed library): 0; NMR signal, Conc 1 (directed library): 0; interaction with the antibody in NMR screening of directed library (two higher antibody concentrations): negative result"

# Further lines, with some results ahead:
"NMR signal, conc 1","NMR signal, conc 2",Compound,also measured
0,,"CSCCNC(=O)c1nc2ccccc2c(=O)n1N [AB_0001130, 3-amino-n-[2-(methylthio)ethyl]-4-oxo-3,4-dihydroquinazoline-2-carboxamide]",
0,,"S=C(Oc1ccccn1)c1csc(C2COc3ccccc3O2)n1 (stereo not shown) [AB_0001260, 2-pyridyl 2-(2,3-dihydro-1,4-benzodioxin-2-yl)-1,3-thiazole-4-carbothioate]",
0,,"O=C1SC(Br)C(=O)N1c1ccccc1 (stereo not shown) [AB_0000880, 5-bromo-3-phenyl-thiazolidine-2,4-dione]",
0,,"O=C(c1ccccn1)C(O)c1ccccn1 (stereo not drawn) [AB_0000510, alpha-pyridoin]",
0,,"O=C1C(=Cc2ccccc2)C(=O)c2ccccc21 [AB_0000730, 2-benzylidene-1,3-indandione]",
0,,"O=C(O)c1ccnn(-c2ccccc2)c1=O [AB_0001180, 3-oxo-2-phenyl-2,3-dihydro-4-pyridazinecarboxylic acid]",
0,,"O=C(Cc1ncon1)Nc1ccc(F)cc1F [AB_0000690, n1-(2,4-difluorophenyl)-2-(1,2,4-oxadiazol-3-yl)acetamide]",
1,0,"Cc1cc(C)nc(SCC(=O)Nc2ccc(F)c(Cl)c2)n1 [AB_0000580, n1-(3-chloro-4-fluorophenyl)-2-[(4,6-dimethylpyrimidin-2-yl)thio]acetamide]",
0,,"O=C(COc1ccc2ccccc2c1)ON1C(=O)CCC1=O [AB_0001230, (2-naphthoxy)acetic acid, n-hydroxysuccinimide ester]",
1,0,"O=C1C=CC(=O)N1c1cccc(Cl)c1 [AB_0001090, n-(3-chlorophenyl)-maleimide]",
0,,"c1ccc(-c2nnc(-c3ccccn3)nn2)nc1 [AB_0000700, 3,6-di-2-pyridyl-1,2,4,5-tetrazine]",
0,,"CC1CN=C(SCc2ccccc2)N1.Cl (stereo not shown) [AB_0001080, 2-(benzylthio)-5-methyl-4,5-dihydro-1h-imidazol-3-ium chloride]",
1,0,"COC(=O)c1ccc2ccccc2c1O [AB_0001200, methyl 1-hydroxy-2-naphthoate]",
2,0,"c1ccc(CCn2cc(-c3ccncc3)cn2)cc1 [AB_0001190, 4-[1-(2-phenylethyl)-(1h)-pyrazol-4-yl]pyridine]",
0,,"CC1=NN(c2cccc(Cl)c2)C(=O)C1 [AB_0000530, 1-(3-chlorophenyl)-3-methyl-2-pyrazolin-5-one]",
0,,"O=C1C(=O)N(c2ccccc2)C(=O)N1c1ccccc1 [AB_0000540, 1,3-diphenylparabanic acid]",
0,,"OC(CNCc1ccc(Cl)cc1Cl)C(F)(F)F (stereo not shown) [AB_0001170, 3-[(2,4-dichlorobenzyl)amino]-1,1,1-trifluoro-2-propanol]",
1,0,"OC(CNCc1ccccc1)C(F)(F)F (stereo not shown) [AB_0001000, 3-(benzylamino)-1,1,1-trifluoro-2-propanol]",
